Entries after “also recorded” stand apart in the source; their conditions may differ. Where a name gives a salt, the structure may show the parent alone. Non-standard residues stand in square brackets, D forms with d. Residues, ends and D or L forms follow the SMILES beside them.

What all share (format): in vivo
In assay [1] the test system is rat model of DKA. Kind of assay: Cardiovascular parameters (MAP, pulse pressure, heart rate) in diabetic ketoacidosis rats. The settings on record: for effect on mean arterial pressure: day 4, FIG. 3, antagonist given with saline+insulin; for effect on mean arterial pressure / effect on pulse pressure / effect on heart rate: result in words; for effect on pulse pressure: day 4, FIG. 4, antagonist given with saline+insulin; for effect on heart rate: day 4, FIG. 5, antagonist given with saline+insulin. The source says: Rats were anaesthetized with urethane (1.5 g/kg ip.) and prepared for the determination of hemodynamic parameters (Gulati et al., 1997a; Gulati et al., 1997b). The anesthetized rats were shaved and immobilized to prepare for cannulation. A 2-3 centimeter (cm) incision was made above the femoral vein and artery and the vessels were dissected and cleaned. The left femoral vein was cannulated (PE-50 tubing, Clay Adams, Parsipanny, N.J.) and secured for drug administration. An ultra-miniature pressure transducer SPR-320 (2F Polyurethane), with a single pressure sensor side mounted at the tip (Millar Instruments, Houston, Tex.) was inserted in the left femoral artery to acquire the hemodynamic signals. Pressure transducer was connected to bridge amplifier (ML221 Bridge Amp; AD Instruments, Mountain View, Calif., USA) with Viking connector (AEC-10C) and the signals were continuously acquired at a sampling rate of 1000 S^−1 using Millar PowerLab 16/30 data acquisition system (AD Instruments, Mountain View, Calif., USA). Mean arterial pressure (MAP), heart rate (HR), and pulse pressure (PP) were determined and analyzed with LabChart-5.00 software program (Millar Instruments). After the experiment was completed, the animals were euthanized with a high dose of urethane (3 gm/kg).
(§1) Group 4: Diabetic saline/insulin treated (D-Saline+insulin treated): Rats were injected with streptozotocin in citrate buffer (150 mg/kg ip) to induce diabetes and ketoacidosis. On day three, rats were treated with 1.5 U/kg regular insulin (Humulin® R (Regular human insulin, rDNA origin). On day four, saline and insulin treatment was carried out. Rats were infused via cannulated femoral vein saline, 0.9% NaCl at 80 mL/kg/hr and 1.5 U/kg/hr regular insulin for one hour. During the next two through four hours, rats were infused with saline, 0.9% NaCl at 40 mL/kg/hr and 1.5 U/kg/hr regular insulin (Yuen et al., 2008).
(§2) Group 5: Diabetic BMS-182874/saline/insulin treated (D-BMS+Saline+insulin treated): Rats were injected with streptozotocin in citrate buffer (150 mg/kg ip) to induce diabetes and ketoacidosis. On day three, rats were treated with 1.5 U/kg regular insulin. On day four, rats were administered a bolus dose of selective ETA receptor antagonist, BMS-182874 (9 mg/kg), then saline and insulin treatment was carried out. Rats were infused via cannulated femoral vein saline, 0.9% NaCl at 80 mL/kg/hr and 1.5 U/kg/hr regular insulin for one hour. During the next two through four hours rats were infused with saline, 0.9% NaCl at 40 mL/kg/hr and 1.5 U/kg/hr regular insulin.
(§3) Group 6: Diabetic BQ123/saline/insulin treated (D-BQ+saline+insulin treated): Same as above for Group 5, except BQ123 (1 mg/kg body weight) is used as a substitute for BMS-182874 (9 mg/kg).
(§4) Data are presented as mean±SEM. The significance of differences was estimated by one-way analysis of variance (intra group comparison with respect to base line data) and two-way analysis of variance (inter group comparison with respect to corresponding time points from each groups) followed by application of the Dunnett's Multiple Comparisons and Bonferroni test respectively. A P value of less than 0.05 was considered to be significant. The statistical analysis was processed with GraphPad Prism software Version 5.00.

Assay [2] has as its system rat model of DKA. Description: Brain and lung water content in diabetic ketoacidosis rats. Conditions: end of treatment; for effect on lung water content (pulmonary edema): FIG. 7, result in words; for effect on brain water content (cerebral edema): FIG. 8, result in words. Here is the method: Water content in the lung and brain was determined to assess brain and pulmonary edema. Assessment of brain and lung water content was carried out as follows. At the end of treatment the animal was sacrificed and trachea was immediately tied, then the lungs were dissected out. The skull was opened and brain dissected out. Brain and lungs were rinsed with saline, and weighed (wet weight). The brain and lungs were kept for drying in an oven at a temperature of 60° C. for 72 hours, then weighed again (dry weight). The percent water content was calculated using the formula: [(wet weight−dry weight)/wet weight×100].
as §1, §2, §3, §4

For assay [3], the system named is rat model of DKA. Kind of assay: Blood glucose in streptozotocin-induced diabetic ketoacidosis rats. The settings on record: for blood glucose, Day 4 (pre-tx): baseline before treatment on day 4, mean±SEM; for effect of treatment on blood glucose: day 4, result in words; for blood glucose, Day 4 (end of tx) / blood glucose, Day 4 (1 hour of tx): saline+insulin infusion, alone or after bolus BMS-182874 9 mg/kg or BQ123 1 mg/kg, mean±SEM; for blood glucose, Day 4 (end of tx): fifth hour. The method, then: (§5) Normotensive Sprague Dawley rats were kept on fasting for 2 hours with unlimited access to water. After 2 hours of fasting, rats were injected intraperitoneally with 150 mg/kg of streptozotocin in 0.05 mol/L citric acid, pH 4.3 to induced diabetes (Lam et al., 2005; Yuen et al., 2008), while non-diabetic control rats received an intraperitoneal injection of 0.05 mol/L citrate buffer (Lam et al., 2005; Yuen et al., 2008). Rats were allowed unlimited access to tap water and food. Each day rats were weighed and urine ketone levels were estimated by Urine Reagent Strips, 1K Parameter. Prior to streptozotocin or citrate buffer injection, baseline blood glucose levels were assessed by One Touch Ultra blood glucose strips from Lifescan, Milpitas, Calif., and baseline blood ketone levels were estimated using Cardiochek blood ketone analyzer. Blood glucose and ketone were measured again on day three and four to ensure the onset of hyperglycemia and ketoacidosis. […] Blood samples were withdrawn from the femoral […] for baseline reading prior to start of treatment, after the first hour of treatment, and then at the end of the treatment (fifth hour of experiment).
(§6) The animals were allowed to stabilize for at least 20 minutes following surgical procedures. Body weight, blood glucose, urinary ketone, blood ketone, arterial blood gases, blood electrolytes, mean arterial pressure, pulse pressure, heart rate, brain blood perfusion, brain and lung water content were determined in the following groups
as §1, §2, §3, §4

Assay [4] concerns rat model of DKA. Description: Blood ketone levels in diabetic ketoacidosis rats. The settings on record: for blood ketone levels, Day (pre tx): baseline before treatment; for blood ketone levels, Day (pre tx) / blood ketone levels, Day 4 (end of tx): mean±SEM; for effect of treatment on blood ketones: day 4, result in words (Table 2, FIG. 2); for blood ketone levels, Day 4 (end of tx): saline+insulin, alone or after bolus BMS-182874 9 mg/kg or BQ123 1 mg/kg. The method, then:
as §5, §6, §1, §2, §3, §4

As to `Cc1noc(NS(=O)(=O)c2cccc3c(N(C)C)cccc23)c1C` [BMS-182874, (5-Dimethylamino)-N-(3,4-dimethyl-5-isoxazolyl)-1-naphthalene sulfonamide hydrochloride], in assay [1], the “effect on mean arterial pressure” value is “stabilized the arterial pressure”, the “effect on pulse pressure” value is reported as “stabilized the pulse pressure” and the “effect on heart rate” value was “did not produce any decrease in heart rate compared to baseline”. The “effect on insulin induced hypertension” value in assay [1] (day 4, result in words) is “prevented development of insulin induced hypertension”. In assay [2], the “effect on lung water content (pulmonary edema)” value (shortened to “effect on lung water content”) is “restored lung water content” and the “effect on brain water content (cerebral edema)” value (from here on “effect on brain water content”) is on record as “restored brain water content”. Moreover, in assay [3], the “blood glucose, Day 4 (pre-tx)” value was found to be 522 ± 18 mg/dL; the “effect of treatment on blood glucose” value was “did not significantly affect blood glucose”; the “blood glucose, Day 4 (end of tx)” value came out at 263 ± 32 mg/dL; the “blood glucose, Day 4 (1 hour of tx)” value is given as 446 ± 36 mg/dL. Further, in assay [4], the “blood ketone levels, Day (pre tx)” value was determined as 31.01 ± 2.29 mg/dL and the “blood ketone levels, Day 4 (end of tx)” value was found to be 14.65 ± 2.70 mg/dL. The “effect of treatment on blood ketones” value in assay [4] (hydrochloride) is “did not significantly affect blood ketones”. The “effect of treatment on blood ketones” value in assay [4] (listed as BMS, hydrochloride) is reported as “produced a significant decrease in blood ketones”.

As to `CC(C)C[C@@H]1NC(=O)[C@@H](C(C)C)NC(=O)[C@@H]2CCCN2C(=O)[C@@H](CC(=O)O)NC(=O)[C@@H](Cc2c[nH]c3ccccc23)NC1=O` [BQ123, Cyclo(D-Trp-D-Asp-Pro-D-Val-Leu)] (cyclo(L[dW][dD]P[dV])), in assay [1], the “effect on mean arterial pressure” value is reported as “stabilized the arterial pressure” and the “effect on heart rate” value is “did not produce any decrease in heart rate compared to baseline”. Moreover, in assay [2], the “effect on lung water content” value is reported as “restored lung water content” and the “effect on brain water content” value is listed as “restored brain water content”. Also, in assay [3], the “blood glucose, Day 4 (pre-tx)” value turned out to be 484 ± 17 mg/dL; the “effect of treatment on blood glucose” value is “did not significantly affect blood glucose”; the “blood glucose, Day 4 (end of tx)” value was determined as 312 ± 55 mg/dL; the “blood glucose, Day 4 (1 hour of tx)” value was 462 ± 55 mg/dL. In assay [4], the “blood ketone levels, Day (pre tx)” value came to 28.22 ± 3.14 mg/dL; the “effect of treatment on blood ketones” value is listed as “particularly marked decrease in blood ketones; also recorded: significantly decrease the blood ketones”; the “blood ketone levels, Day 4 (end of tx)” value is 5.2 ± 0.36 mg/dL.

On to “Insulin: Humulin® R (Regular human insulin, rDNA origin), infused with saline”, for which, in assay [1], the “effect on mean arterial pressure” value is on record as “produced much less fall in arterial pressure compared to untreated rats”, the “effect on pulse pressure” value is given as “produced much less fall in pulse pressure compared to untreated rats” and the “effect on heart rate” value was “did not produce any decrease in heart rate compared to baseline”. For the same compound, in assay [2], the “effect on lung water content” value was “restored lung water content” and the “effect on brain water content” value is reported as “restored brain water content”. In assay [3], the “blood glucose, Day 4 (pre-tx)” value is listed as 530 ± 20 mg/dL; the “effect of treatment on blood glucose” value is “produced a significant decrease in blood glucose”; the “blood glucose, Day 4 (end of tx)” value amounted to 200 ± 20 mg/dL; the “blood glucose, Day 4 (1 hour of tx)” value is given as 444 ± 26 mg/dL. In assay [4], the “blood ketone levels, Day (pre tx)” value is 31.925 ± 5.28 mg/dL; the “effect of treatment on blood ketones” value is “produced a significant decrease in blood ketones”; the “blood ketone levels, Day 4 (end of tx)” value came out at 12.8 ± 4.04 mg/dL.
